Data: US20060063747A1, “Paroxetine cholate or cholic acid derivative salts, and composition comprising paroxetine and cholic acid or derivative thereof” (priority 2004, published 2006)
Where a name gives a salt, the structure may show the parent alone.

Assay: Stability comparison under severe conditions (0.3% hydrogen peroxide, 80° C., content by HPLC)
Assay type: physicochemical
Conditions: for Drug content, 24 hrs / Drug content, 48 hrs / Drug content, 120 hrs / Drug content, Initial / Drug content, 72 hrs / Drug content, 144 hrs: 1 mg/mL in 0.3% hydrogen peroxide, chamber at 80° C.
Experimental: Each of the drugs shown in Table 5 was completely dissolved in a 0.3% hydrogen peroxide solution at a concentration of 1 mg/mL. While storage under stressed conditions at 80° C., changes in the contents of the drugs were monitored. The 0.3% hydrogen peroxide solution is a solution commonly used to quickly determine the stability of drugs and provides stressed conditions for artificial acceleration of the oxidation of the drugs. The content analysis was conducted by HPLC in accordance with the paroxetine content analysis defined in USP.

Row | Compound | Drug content, 24 hrs [%] | Drug content, 48 hrs (hydrochloride) [%] | Drug content, 120 hrs (hydrochloride) [%] | Drug content, Initial [%] | Drug content, 72 hrs [%] | Drug content, 144 hrs [%] | Drug content, 48 hrs [%] | Drug content, 120 hrs [%] | Stability compared to other paroxetine salts (in words) (0.3% hydrogen peroxide, 80° C., HPLC)
1 | Fc1ccc([C@@H]2CCNC[C@H]2COc2ccc3c(c2)OCO3)cc1 [Paroxetine HCl, paroxetine hydrochloride] | 84.5 | 53.8 | 13.4 | 100.0 |  |  |  |  | 
2 | Fc1ccc([C@@H]2CCNC[C@H]2COc2ccc3c(c2)OCO3)cc1.Fc1ccc([C@@H]2CCNC[C@H]2COc2ccc3c(c2)OCO3)cc1.O.O=C(O)C(O)C(O)C(=O)O.O=C(O)C(O)C(O)C(=O)O [Paroxetine tartarate] | 81.3 |  |  | 100.0 | 28.3 | 4.8 |  |  | 
3 | Fc1ccc([C@@H]2CCNC[C@H]2COc2ccc3c(c2)OCO3)cc1.O=S(=O)(O)c1ccc2ccccc2c1 [Paroxetine napsylate] | 60.4 |  |  | 100.0 | 16.1 | 3.5 |  |  | 
4 | paroxetine methanesulfonate | 74.4 |  |  | 100.0 | 16.6 |  | 31.8 |  | 
5 | C[C@H](CCC(=O)NCC(=O)O)[C@H]1CC[C@H]2[C@@H]3[C@H](O)C[C@@H]4C[C@H](O)CC[C@]4(C)[C@H]3C[C@H](O)[C@]12C.Fc1ccc([C@@H]2CCNC[C@H]2COc2ccc3c(c2)OCO3)cc1 [Paroxetine glycocholate, paroxetine glycocholate] | 96.8 |  |  | 100.0 |  |  | 89.6 | 54.3 | highly stable
6 | Fc1ccc([C@@H]2CCNC[C@H]2COc2ccc3c(c2)OCO3)cc1.O=C(O)[C@H]1OC(O)[C@H](O)[C@@H](O)[C@@H]1O [Paroxetine glucuronate] | 92.8 |  |  | 100.0 |  |  | 59.0 | 12.3 | 
